For assay [1], the target named is T1, RORγt (Homo sapiens, UniProt P51449).
T1 sequence (P51449 1-497 isoform P51449-2): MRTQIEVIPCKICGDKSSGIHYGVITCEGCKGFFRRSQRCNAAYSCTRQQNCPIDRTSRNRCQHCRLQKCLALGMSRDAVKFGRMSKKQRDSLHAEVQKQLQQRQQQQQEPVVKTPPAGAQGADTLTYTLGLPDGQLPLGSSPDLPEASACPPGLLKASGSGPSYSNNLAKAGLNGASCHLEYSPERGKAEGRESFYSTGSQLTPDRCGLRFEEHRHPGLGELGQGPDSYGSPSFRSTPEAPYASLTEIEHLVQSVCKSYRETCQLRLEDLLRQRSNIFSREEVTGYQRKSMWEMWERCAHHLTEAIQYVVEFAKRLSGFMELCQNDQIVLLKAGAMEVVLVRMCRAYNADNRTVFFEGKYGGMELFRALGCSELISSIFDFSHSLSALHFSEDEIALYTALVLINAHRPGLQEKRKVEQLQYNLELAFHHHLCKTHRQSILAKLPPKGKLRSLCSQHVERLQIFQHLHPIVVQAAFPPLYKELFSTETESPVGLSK
Put plainly: Jurkat reporter test (human IL-17 ROR response element luciferase, RORγt vector). The format is cell-based. The conditions noted are these: test compound 3 μM, Jurkat cells, read-out: luminescence level inhibitory rate at test compound 3 μM. Here is the method: The Jurkat cells used for the reporter test were cultured in a culture medium (RPMI (Invitrogen), 10% FCS (AusGeneX), 100 U/mL penicillin, 100 μg/mL streptomycin). On the day of the test, 4×10^7 cells were recovered by a centrifugal operation (1000 rpm, 5 min.) and suspended in PBS (phosphate buffered saline) (Invitrogen). Thereafter, the cells were recovered again by a centrifugal operation, and suspended in 2 mL of R buffer (NEON transfection kit, Invitrogen). […] Gene transfer was performed by Electroporation apparatus (NEON, Invitrogen) under the conditions of pulse voltage 1350 V, interval 10 milliseconds, number of times 3. The cells after gene transfer were suspended in 40 mL of a reaction medium (RPMI, 10% Lipid reduced FCS (HyClone), 10 mM HEPES (pH 7.5), 100 U/mL penicillin, 100 μg/mL streptomycin, 5 μM lovastatin), and plated in a 96 well plate by 90 μL. A test compound diluted with the reaction medium was added by 10 μL, and the cells were cultured overnight in an incubator. Bright-Glo (Promega) was added by 100 μL, and the mixture was stirred at room temperature for 10 min, and the luminescence level was measured by Envision (PerkinElmer).

The target of assay [2] is T1, RORγt. The assay can be described thus: Cofactor recruitment test (Alpha Screen, biotinylated SRC-1 peptide). The format is biochemical. The conditions noted are these: read-out: signal value inhibitory rate at test compound 1 μM. As for the experimental part:
Cofactor Recruitment Test
Cofactor recruitment test was performed by Alpha Screen (Histidine Detection Kit, PerkinElmer) method. First, a test compound was diluted with an assay buffer (50 mM Tris-HCl (pH 7.5), 50 mM KCl, 1 mM DTT, 0.1% BSA) and added to a 384 well plate by 5 μL. […] The mixture was stood in a dark place for 1 hr, and the signal value was measured by Envision (PerkinElmer).

In assay [3] the target is T1, RORγt. The assay can be described thus: RORγt binding test using fluorescent-labeled synthetic ligand (TR-FRET). Particulars: read-out: binding inhibitory rate of fluorescent-labeled synthetic ligand to RORγt at test compound 1 μM. Here is the method:
RORγt Binding Test using Fluorescent-Labeled Synthetic Ligand
The binding activity of the test compound to RORγt was measured by a time resolved fluorescence resonance energy transfer method (TR-FRET) utilizing histidine-tagged RORγt, fluorescent-labeled synthetic ligand and terbium-labeled anti-histidine tag antibody (Invitrogen). First, a test compound diluted with an assay buffer (20 mM Tris-HCl (pH 7.5), 100 mM NaCl, 1 mM DTT, 0.1% BSA) was added to a 384 well plate by 3 μL. Then, RORγt diluted with an assay buffer to 240 nM was added by 3 μL, after which fluorescent-labeled synthetic ligand diluted with the assay buffer to 12 μM was added by 3 μL, and the mixture was stood at room temperature for 20 min. Thereafter, a terbium-labeled anti-histidine tag antibody diluted with the assay buffer to 8 nM was added by 3 μL. The mixture was stood at room temperature for 20 min, and fluorescence intensity (excitation wavelength 320 nm, fluorescence wavelength 520 nm, delay time 100 microseconds) was measured by Envision (PerkinElmer).

The next assay concerns IL-17A gene expression. Put plainly: Effect on IL-23-induced cytokine expression in mice. The format is in vivo, mouse. The conditions noted are these: 10 mg/kg oral, 30 min before and 8 hr after IL-23; ear of Balb/c mice; versus the negative control group. As for the experimental part:
Effect on IL-23-Induced Cytokine Expression in Mice
A mouse IL-23 solution (500 ng/10 μL, prepared by Takeda Pharmaceutical Company Limited) or PBS (10 μL, negative control group) was administered intradermally in the ear of Balb/c mice (Charles River Japan, male, 7 weeks old). Twenty-four hr after administration, the ear was resected under isoflurane anesthesia. The test compound was suspended in 0.5% methylcellulose and administered orally 30 min before and 8 hr after IL-23 administration.
RNA extraction from the ear tissue and quantitative PCR were performed as follows. Specifically, ear tissue 5 mm in diameter was punched from an area of the resected ear centering on the IL-23 injection site, and the tissue was immersed in RNAlater (QIAGEN) for at least 18 hr. The RNAlater-treated ear tissue was homogenized in 350 μL of RLT buffer (RNeasy mini kit, QIAGEN) and treated (55° C., 10 min) with Proteinase K (QIAGEN). Total RNA was then extracted according to the RNeasy mini kit protocol. The RNA thus obtained was then reverse transcribed into cDNA using the High-Capacity RNA-to-cDNA kit (Applied Biosystems), and the amount of each gene expressions was measured by real-time PCR (Viia7™, Applied Biosystems). The PCR buffer used was TaqMan Fast Advanced Master Mix (Applied Biosystems), and TaqMan Gene Expression Assays (Applied Biosystems) Mm00439618_m1 (IL-17A) and 4352341E (β-actin) were used for each gene detection. The IL-17A gene expression level was normalized to the β-actin gene expression level, and the percent inhibition of IL-17A gene expression with the test compound was then calculated.
The results (percent inhibition of IL-17A gene expression with oral administration of the test compound) measured by the above-mentioned method are shown in Table 9.

Assay [4] has as its system IL-17 production in human blood. The assay can be described thus: Effect on IL-17 production in human blood. The conditions noted are these: 72 h; 10 μM test compound; human peripheral blood, IL-23 and Dynabeads stimulation, 3 days; read-out: percent inhibition at 10 μM (IL-17 production). Type of assay: cell-based. As for the experimental part: Effect on IL-17 Production in Human Blood
The inhibitory effect of the test compound on IL-17 production in human blood was evaluated as follows. First, 150 μL of peripheral blood collected from healthy individuals using heparinized vacuum blood collection tubes was dispensed into each well of a 96-well plate (Corning), and 45 μL of RPMI 1640 medium (Gibco) containing 10% fetal bovine serum (FBS, Hyclone) and 30 μL of the test compound diluted with the medium were added to each well. The plate was then cultured for 30 min at 37° C. The cells were subsequently stimulated by adding 30 μL of 100 ng/mL human IL-23 (R&D) and 45 μL of Dynabeads Human (Invitrogen) to each well and culturing the plate for 3 days at 37° C. In wells without stimulation, 75 μL of RPMI 1640 medium containing 10% FBS was added instead of the IL-23 and Dynabeads solution. After culturing for 3 days, the culture supernatant was collected, and the amount of IL-17 in the supernatant was measured using an IL-17 ELISA kit (R&D).
The results (percent inhibition of IL-17 production with 10 μM of the test compound) measured by the above-mentioned method are shown in Table 8.

Where two headings read alike, the source gives them in different places.

Regarding `CCOc1ccc2c(c1)CCN(C(=O)[C@H]1C[C@H](C(=O)O)C1)[C@H]2C(=O)Nc1cc(F)c([Si](C)(C)C)c(F)c1` [Example 9, trans-3-(((1R)-1-((3,5-difluoro-4-(trimethylsilyl)phenyl)carbamoyl)-6-ethoxy-3,4-dihydroisoquinolin-2(1H)-yl)carbonyl)cyclobutanecarboxylic acid], the inhibition at 3 µM on RORγt [1] turned out to be 99%. Moreover, the results for the inhibition at 1 µM on RORγt [2] and at RORγt [3] were 88% and 102%, respectively. In addition, in the assay with IL-17A gene expression, the “percent inhibition of IL-17A gene expression” value (“percent inhibition” for short) was 57%. Moreover, the inhibition at 10 µM in assay [4] was 93.5%.

For `COc1ccc2c(n1)CCN(C(=O)[C@H]1C[C@@H](C(=O)O)C1)[C@H]2C(=O)Nc1cc(F)c([Si](C)(C)C)c(F)c1` [Example 31, cis-3-(((5R)-5-((3,5-difluoro-4-(trimethylsilyl)phenyl)carbamoyl)-2-methoxy-7,8-dihydro-1,6-naphthyridin-6(5H)-yl)carbonyl)cyclobutanecarboxylic acid], the inhibition at 3 µM on RORγt [1] was 102%. Besides, the inhibition at 1 µM on RORγt [2] was determined as 86%; at RORγt [3], 102%. The “percent inhibition” value with IL-17A gene expression is reported as 85%. Further, the inhibition at 10 µM in assay [4] amounted to 89.8%.

As for `COCc1ccc2c(c1)CCN(C(=O)[C@H]1C[C@H](CC(=O)O)C1)[C@H]2C(=O)Nc1cc(F)c2c(c1)CCC2(C)C` [Example 24, (trans-3-(((1R)-1-((7-fluoro-1,1-dimethyl-2,3-dihydro-1H-inden-5-yl)carbamoyl)-6-(methoxymethyl)-3,4-dihydroisoquinolin-2(1H)-yl)carbonyl)cyclobutyl)acetic acid], the inhibition at 3 µM at RORγt [1] (Jurkat) stood at 101%. Also, the inhibition at 1 µM on RORγt [2] (test compound 1 μM) amounted to 80%; at RORγt [3] (test compound 1 μM), 101%. The inhibition at 10 µM in assay [4] was 92.7%.

Turning to `CCOCC(C)(C)c1c(F)cc(NC(=O)[C@H]2c3ccc(OCC)cc3CCN2C(=O)[C@H]2C[C@@H](CC(=O)O)C2)cc1F` [Example 18, (cis-3-(((1R)-6-ethoxy-1-((4-(1-ethoxy-2-methylpropan-2-yl)-3,5-difluorophenyl)carbamoyl)-3,4-dihydroisoquinolin-2(1H)-yl)carbonyl)cyclobutyl)acetic acid], the inhibition at 3 µM at RORγt [1] (Jurkat) is 97%. The inhibition at 1 µM was 70% on RORγt [2] (test compound 1 μM) and 101% on RORγt [3] (test compound 1 μM). The inhibition at 10 µM in assay [4] worked out at 80%.

For `COc1ccc2c(c1)CCN(C(=O)[C@H]1C[C@@H](CC(=O)O)C1)[C@H]2C(=O)Nc1cc(F)c([Si](C)(C)C)c(F)c1` [Example 25, (cis-3-(((1R)-1-((3,5-difluoro-4-(trimethylsilyl)phenyl)carbamoyl)-6-methoxy-3,4-dihydroisoquinolin-2(1H)-yl)carbonyl)cyclobutyl)acetic acid], the inhibition at 3 µM on RORγt [1] is 101%. The inhibition at 1 µM was 93% at RORγt [2] and 102% at RORγt [3]. Moreover, the “percent inhibition” value in the assay with IL-17A gene expression turned out to be 92%.

Turning to `COc1ccc2c(c1)CCN(C(=O)[C@H]1C[C@@H](C(=O)O)C1)[C@H]2C(=O)Nc1ccc([Si](C)(C)C)c(F)c1` [Example 32, cis-3-(((1R)-1-((3-fluoro-4-(trimethylsilyl)phenyl)carbamoyl)-6-methoxy-3,4-dihydroisoquinolin-2(1H)-yl)carbonyl)cyclobutanecarboxylic acid], the inhibition at 3 µM on RORγt [1] worked out at 101%. In addition, the inhibition at 1 µM at RORγt [2] turned out to be 91%; at RORγt [3], 102%. Moreover, in the assay on IL-17A gene expression, the “percent inhibition” value was determined as 83%.

For the compound `COc1ccc2c(n1)CCN(C(=O)[C@H]1C[C@@H]1CC(=O)O)[C@H]2C(=O)Nc1cc(F)c([Si](C)(C)C)c(F)c1` [Example 13, ((1R,2S)-2-(((5R)-5-((3,5-difluoro-4-(trimethylsilyl)phenyl)carbamoyl)-2-methoxy-7,8-dihydro-1,6-naphthyridin-6(5H)-yl)carbonyl)cyclopropyl)acetic acid], the inhibition at 3 µM on RORγt [1] was found to be 104%. Also, the inhibition at 1 µM is 83% on RORγt [2] and 102% on RORγt [3]. In addition, in the assay on IL-17A gene expression, the “percent inhibition” value is listed as 91%.

Turning to `COC(=O)C[C@H]1C[C@@H](C(=O)N2CCc3nc(OC)ccc3[C@@H]2C(=O)Nc2cc(F)c3c(c2)CCC3(C)C)C1` [Example 45, methyl (cis-3-(((5R)-5-((7-fluoro-1,1-dimethyl-2,3-dihydro-1H-inden-5-yl)carbamoyl)-2-methoxy-7,8-dihydro-1,6-naphthyridin-6(5H)-yl)carbonyl)cyclobutyl)acetate], the inhibition at 3 µM at RORγt [1] (Jurkat) is 101%. Also, the inhibition at 1 µM at RORγt [2] (test compound 1 μM) turned out to be 66%; at RORγt [3] (test compound 1 μM) it was 101%.

Consider `COc1ccc2c(n1)CCN(C(=O)[C@H]1C[C@H](CC(=O)O)C1)[C@H]2C(=O)Nc1cc(F)c2c(c1)CCC2(C)C` [Example 20, (trans-3-(((5R)-5-((7-fluoro-1,1-dimethyl-2,3-dihydro-1H-inden-5-yl)carbamoyl)-2-methoxy-7,8-dihydro-1,6-naphthyridin-6(5H)-yl)carbonyl)cyclobutyl)acetic acid], for which the “percent inhibition” value in the assay with IL-17A gene expression stood at 99%.

Values taken from patent US10093629B2, “Heterocyclic compounds and their use as retinoid-related orphan receptor (ROR) gamma-T inhibitors” (Takeda Pharmaceutical Company Limited, priority 2014, dated 2018).
